Experimental findings from ChEMBL document CHEMBL1135204, “Synthesis and muscarinic M2 subtype antagonistic activity of unnatural ent-himbacine and an enantiomeric pair of (2'S,6'R)-diepihimbacine” (Bioorg Med Chem Lett, 2002) are described below.

For orientation: Ki means a measure of affinity in units of concentration, obtained from inhibition or displacement. A higher Ki goes with lower affinity.

Test [1] deals with T1, Muscarinic acetylcholine receptor M1 (Rattus norvegicus, UniProt P08482).
T1 sequence (P08482 whole entry): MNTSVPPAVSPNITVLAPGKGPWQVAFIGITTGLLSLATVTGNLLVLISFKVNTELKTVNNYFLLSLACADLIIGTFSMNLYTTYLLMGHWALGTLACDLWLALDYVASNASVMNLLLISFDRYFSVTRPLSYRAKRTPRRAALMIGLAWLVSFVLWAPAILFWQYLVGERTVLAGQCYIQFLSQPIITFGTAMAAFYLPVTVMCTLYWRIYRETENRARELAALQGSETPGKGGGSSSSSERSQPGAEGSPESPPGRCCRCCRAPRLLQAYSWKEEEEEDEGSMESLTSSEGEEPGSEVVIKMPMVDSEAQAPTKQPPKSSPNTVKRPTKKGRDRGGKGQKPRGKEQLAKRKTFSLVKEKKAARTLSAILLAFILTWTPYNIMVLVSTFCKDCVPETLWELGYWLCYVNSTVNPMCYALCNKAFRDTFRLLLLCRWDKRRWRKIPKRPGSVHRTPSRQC
Nature of the test: Binding affinity against the muscarinic M1 (cortex) subtype was evaluated using [3H]pirenzepine.

For test [2], the target named is T2, Muscarinic acetylcholine receptor M2 (Rattus norvegicus, UniProt P10980).
T2 sequence (P10980 whole entry): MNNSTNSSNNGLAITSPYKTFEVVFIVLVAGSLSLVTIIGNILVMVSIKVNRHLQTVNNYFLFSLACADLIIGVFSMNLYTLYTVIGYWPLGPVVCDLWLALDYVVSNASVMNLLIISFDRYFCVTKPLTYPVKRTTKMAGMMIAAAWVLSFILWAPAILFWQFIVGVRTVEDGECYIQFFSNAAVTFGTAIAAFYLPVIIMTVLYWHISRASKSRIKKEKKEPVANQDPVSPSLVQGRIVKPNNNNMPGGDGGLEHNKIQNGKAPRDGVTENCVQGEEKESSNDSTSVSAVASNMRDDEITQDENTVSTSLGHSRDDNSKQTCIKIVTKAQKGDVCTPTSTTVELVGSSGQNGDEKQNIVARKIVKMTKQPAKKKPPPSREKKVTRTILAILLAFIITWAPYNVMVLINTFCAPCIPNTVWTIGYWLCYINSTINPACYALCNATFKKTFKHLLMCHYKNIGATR
Nature of the test: Binding affinity against the muscarinic M2 (brainstem) subtype was evaluated using [3H]quinuclidinyl benzilate. It counts as tissue-based.

In the case of `C[C@@H]1OC(=O)[C@H]2C[C@H]3CCCC[C@@H]3[C@@H](/C=C/[C@@H]3CCC[C@@H](C)N3C)[C@@H]12`, the Ki in test [1] is 316 nM; in test [2] it was 200 nM.
Taken in the same sequence, the figures for `C[C@H]1OC(=O)[C@@H]2C[C@@H]3CCCC[C@H]3[C@H](/C=C/[C@H]3CCC[C@H](C)N3C)[C@H]12` were 316 nM and 200 nM.
Taken in the same sequence, the figures for `C[C@@H]1CCC[C@@H](/C=C/[C@H]2[C@@H]3CCCC[C@H]3C[C@H]3C(=O)O[C@H](C)[C@@H]23)N1C` (single isomer, unassigned; ent-1) were 1000 nM and 794 nM.
The matching figures for `C[C@@H]1OC(=O)[C@H]2C[C@H]3CCCC[C@@H]3[C@@H](/C=C/[C@H]3CCC[C@H](C)N3C)[C@@H]12` [HIMBACINE]: 63.1 nM and 10 nM.
